From patent US20260234549A1, “NON-INVASIVE TUNING OF PROTEIN ALIGNMENT” (NEW YORK UNIVERSITY IN ABU DHABI CORPORATION, priority 2023, published 2026)

Tests used:
[1] = tested on: fibroblasts cultured on matrix with aligned collagen fibrils (30° condition); experiment: αSMA gene expression (RT-qPCR) of fibroblasts on aligned collagen matrix treated with inhibitors; type: cell-based, human; conditions: 3 days; 1 μM verteporfin, 10 μM blebbistatin, 20 μM Y-27632, 2 μM SB-431542; 30° aligned matrix; normalized to fibroblasts
Method: Quantitative gene expression analysis: Gene expression analysis for fibroblast differentiation was performed using an established protocol. Briefly, TRIzol (Thermo Fisher Scientific, Dreieich, Germany) was used to extract total RNA. The obtained RNA was converted into complementary DNA (cDNA) using a high-capacity cDNA reverse transcription kit (Applied Biosystems, Waltham, USA). The concentration and the ratio of absorbance at 260 nm and 280 nm of cDNA were quantified using a Nanodrop (Thermo Fisher Scientific, Dreieich, Germany) prior to performing gene expression analysis. Ribosomal protein S26 (RPS26) was used as a reference gene. […] The primer sequences are listed in Table 1. qPCR was performed using SYBR Green PCR Master Mix (Applied Biosystems, Waltham, USA). The qPCR procedure was set as follows: denaturation for 5 min at 95° C.; 45 cycles of denaturation (95° C., 15 s), annealing under primer-specific conditions (30 s) and target gene-specific extension (30 s at 72° C.). The fluorescence signal was measured for 20 s at 72° C. To confirm the specificity of the PCR products, melting curve analysis was performed at the end of each run. Experiments were performed in 4 replicates. Treatment with inhibitors: Fibroblasts cultured onto matrix reconstituted on inclined surfaces with an angle of 30° were treated with 1 μM verteporfin (YAP inhibitor; Sigma-Aldrich, Darmstadt, Germany), 10 μM blebbistatin (myosin inhibitor; Tocris, Bristol, United Kingdom), 20 μM Y-27632 (Rho-associated kinase (ROCK) inhibitor; Tocris, Bristol, United Kingdom) and 2 μM SB-431542 (TGF-31 receptor kinase inhibitor; Sigma-Aldrich, Darmstadt, Germany) for 3 days. After 3 days of treatment, RNA was extracted for the study of αSMA expression using qPCR, as stated in the quantitative gene analysis section. Experiments were performed in 6 replicates.

[2] = tested on: fibroblasts cultured on matrix with aligned collagen fibrils (30° condition); experiment: Live/dead assay (DRAQ7, flow cytometry) of inhibitor-treated fibroblasts on aligned matrix; type: cell-based; conditions: 3 days; 1 μM verteporfin, 10 μM blebbistatin, 20 μM Y-27632, 2 μM SB-431542; 30° aligned matrix
Method: Treatment with inhibitors: Fibroblasts cultured onto matrix reconstituted on inclined surfaces with an angle of 30° were treated with 1 μM verteporfin (YAP inhibitor; Sigma-Aldrich, Darmstadt, Germany), 10 μM blebbistatin (myosin inhibitor; Tocris, Bristol, United Kingdom), 20 μM Y-27632 (Rho-associated kinase (ROCK) inhibitor; Tocris, Bristol, United Kingdom) and 2 μM SB-431542 (TGF-31 receptor kinase inhibitor; Sigma-Aldrich, Darmstadt, Germany) for 3 days. After 3 days of treatment, RNA was extracted for the study of αSMA expression using qPCR, as stated in the quantitative gene analysis section. Experiments were performed in 6 replicates.
Quantitative analysis of cell number and dead cells: Collagen matrices were digested using 2 mg/mL type IV collagenase (Thermo Fisher Scientific, Dreieich, Germany) for 15 min under standard cell culture conditions. Afterwards, cells were stained with DRAQ7 (dead cell staining dye; Biolegend, San Diego, USA) for 10 min on ice. Cells were analyzed using an Attune NxT Flow Cytometer equipped with an autosampler (Thermo Fisher Scientific, Dreieich, Germany). […] The percentage of dead cells was quantified by counting the number of cells that were positive for DRAQ7. At least 20,000 cells were analyzed per condition and replicate. […]

Row | SMILES | αSMA gene expression [1] | cell death (percentage of dead cells) [2]
1 | NC(=O)c1ccc(-c2nc(-c3ccc4c(c3)OCO4)c(-c3ccccn3)[nH]2)cc1 [SB-431542] | significantly reduced | –
2 | C[C@@H](N)[C@H]1CC[C@H](C(=O)Nc2ccncc2)CC1 [Y-27632] | significantly reduced | –
3 | Cc1ccc2c(c1)C(=O)C1(O)CCN(c3ccccc3)C1=N2 (stereo not shown) [blebbistatin] | significantly reduced | without harming cells
